The test system of the first experiment is PPARγ2-mRNA. As to the kind of experiment: RT-PCR of PPARγ2-mRNA expression in 3T3-L1 cells. The format is cell-based. The conditions noted are these: during differentiation of preadipocyte 3T3-L1; GAPDH internal reference; FIG. 4. The procedure:
4.1.3 Reverse Transcription
Polymerase chain reaction (RT-PCR) experiment Extract the total RNA of fully differentiated 3T3-L1 cells to be reversely transcribed into cDNA. The primers are designed as follows:
• The length of the target product is 567 bp.
• The length of the target product is 424 bp.
PCR amplification conditions: initial denaturation at 94 for 5 min, then denaturize at 94 for 30 s, anneal at 57 for 40 s, and extend at 72 for 50 s, a total of 30 cycles. Finally extend at 72 for 10 min. Then conduct electrophoresis analysis with 1.5% agarose gel. GAPDH is used as the internal reference to alleviate the error between different samples. Compare the optical density of objective band with the optical density of amplified GAPDH band for analysis.
With `CCCCCCCCCCCCCCCCCC(=O)Oc1ccc2c(=O)c(-c3ccc(OC)cc3)coc2c1` [I-3, 4′-methoxy-7-O-stearoyl daizeol], the PPARγ2-mRNA expression quantity entry is “significantly decreased”.

On to `CCCCCCCCCCCCCCCC(=O)Oc1ccc2c(=O)c(-c3ccc(OC)cc3)coc2c1` [I-4, 4′-methoxy-7-O-palmityl daizeol], for which the PPARγ2-mRNA expression quantity entry is “significantly decreased”.

For a further experiment, the system named is High Fat Diet Rats. Briefly: Losing weight and depressing blood fat in high-fat diet SD rats. The format is in vivo. The conditions noted are these: intragastric once a day for a month, compounds 25 mg/kg, sibutramine 1.0 mg/kg, mean ± SD, n = 10. The procedure:
1. Activity Determination of Losing Weight and Depressing Blood Fat of SD Rats
The experiment refers to the methods in Experimental Methodology of Pharmacology compiled by Xu Shuyun et al, People's Medical Publishing House 2002: 1189-1201, which is slightly modified.
SD rates (weight 80 g-100 g, male, clean grade) are randomly divided into the following groups according to the weight:
Blank control group (normal diet group); model control group (high-fat diet group); sibutramine, 1.0 mg/kg; Group I-1, 25 mg/kg; Group I-2, 25 mg/kg; Group I-3, 25 mg/kg; Group II-1, 25 mg/kg; Group II-2, 25 mg/kg; Group II-3, 25 mg/kg.
Except the blank control group, the other groups are fed with high-fat diet for two months. In the third month, all groups are required for intragastric administration and the blank control group and model control group are given appropriate volume of excipients once a day for a consecutive month. After the administration, exsanguinate and kill the rats, take femoral arterial blood and separate the plasma, and then measure the parameters according to the unified operating procedures in the kit instructions. Remove the fat around abdominal cavity and reproductive organs, weigh its wet weight and determine the body weight.
`CCCCCCCCCCCCCCCCCC(=O)Oc1ccc(-c2coc3cc(OC)ccc3c2=O)cc1` [II-3, 7-methoxy-4′-O-stearoyl daizeol]: the Fat index stood at 6.0 ± 2.1 g/100 g, the “Free fatty acid FFA” value stood at 738.1 ± 196.0 µmol/L, the “Total cholesterol TC” value was determined as 1.71 ± 0.34 mmol/L and the “Triglyceride TG” value stood at 1.35 ± 0.35 mmol/L. Besides, the Weight after administration was found to be 352 ± 47 g.

For the compound `CCCCC/C=C\C/C=C\CCCCCCCC(=O)Oc1ccc(-c2coc3cc(OC)ccc3c2=O)cc1` [II-2, 7-methoxy-4′-O-linoleoyl daizeol], the Fat index was 5.1 ± 1.3 g/100 g, the “Free fatty acid FFA” value worked out at 658.8 ± 201.2 µmol/L, the “Total cholesterol TC” value turned out to be 1.67 ± 0.23 mmol/L and the “Triglyceride TG” value amounted to 1.03 ± 0.21 mmol/L. Besides, the Weight after administration was 318 ± 28 g.

Take `CC(C)CC(N(C)C)C1(c2ccc(Cl)cc2)CCC1` (stereo not drawn) [Sibutramine, reference compound]: the Fat index turned out to be 4.3 ± 1.7 g/100 g, the “Free fatty acid FFA” value stood at 609.6 ± 138.3 µmol/L, the “Total cholesterol TC” value is 1.32 ± 0.29 mmol/L and the “Triglyceride TG” value is 0.97 ± 0.31 mmol/L. Moreover, the Weight after administration was found to be 301 ± 41 g.

As to `CCCCCCCCCCCCCCCCCC(=O)Oc1ccc2c(=O)c(-c3ccc(OC)cc3)coc2c1` [I-3, 4′-methoxy-7-O-stearoyl daizeol], the Fat index was found to be 5.4 ± 1.2 g/100 g, the “Free fatty acid FFA” value came to 730.2 ± 186.0 µmol/L, the “Total cholesterol TC” value was 1.57 ± 0.30 mmol/L and the “Triglyceride TG” value worked out at 1.19 ± 0.30 mmol/L. The compound also came in with a Weight after administration of 320 ± 34 g.

On to `CCCCCCCC/C=C\CCCCCCCC(=O)Oc1ccc(-c2coc3cc(OC)ccc3c2=O)cc1` [II-1, 7-methoxy-4′-O-oleoyl daizeol], for which the Fat index turned out to be 5.6 ± 1.6 g/100 g, the “Free fatty acid FFA” value was determined as 696.3 ± 205.4 µmol/L, the “Total cholesterol TC” value amounted to 1.65 ± 0.25 mmol/L and the “Triglyceride TG” value came to 1.01 ± 0.24 mmol/L. Also, the Weight after administration is reported as 328 ± 32 g.

The values above are taken from patent US8846752B2, “Isoflavone fatty acid ester derivatives, preparation method and pharmaceutical uses thereof” (China Pharmaceutical University, priority 2010, dated 2014).
